Laboratory results from ChEMBL document CHEMBL1145305, “beta-Secretase inhibitors: modification at the P4 position and improvement of inhibitory activity in cultured cells” (Bioorg Med Chem Lett, 2006).

Key:
Beta-secretase 1 [1] = target: T1, Beta-secretase 1 (Homo sapiens, UniProt P56817); assay: Inhibition of human recombinant BACE1 at 2 uM
Beta-secretase 1 [2] = target: T1, Beta-secretase 1; assay: Inhibition of human recombinant BACE1 at 0.2 uM
Beta-secretase 1 [3] = target: T1, Beta-secretase 1; assay: Inhibition of BACE1 expressed in HEK293 cells at 100 uM; type: cell-based
Beta-secretase 1 [4] = target: T1, Beta-secretase 1; assay: Inhibition of human recombinant BACE1

T1 sequence (P56817 whole entry): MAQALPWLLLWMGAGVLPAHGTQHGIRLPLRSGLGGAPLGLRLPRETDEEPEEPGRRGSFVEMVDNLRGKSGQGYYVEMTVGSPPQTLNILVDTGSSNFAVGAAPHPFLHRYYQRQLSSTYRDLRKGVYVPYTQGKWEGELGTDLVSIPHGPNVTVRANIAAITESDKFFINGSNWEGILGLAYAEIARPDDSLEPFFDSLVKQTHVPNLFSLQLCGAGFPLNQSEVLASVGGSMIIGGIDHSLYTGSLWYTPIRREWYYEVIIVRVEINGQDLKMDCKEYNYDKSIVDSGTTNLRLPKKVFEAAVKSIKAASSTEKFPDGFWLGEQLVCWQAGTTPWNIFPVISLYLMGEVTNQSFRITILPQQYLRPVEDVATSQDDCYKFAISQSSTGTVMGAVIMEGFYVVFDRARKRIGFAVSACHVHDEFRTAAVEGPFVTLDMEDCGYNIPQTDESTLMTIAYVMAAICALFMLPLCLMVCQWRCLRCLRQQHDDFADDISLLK

| Compound | inhibition (Beta-secretase 1 [1]) [%] | inhibition (Beta-secretase 1 [2]) [%] | inhibition (Beta-secretase 1 [3]) [%] | IC50 (Beta-secretase 1 [4]) [nM] |
| --- | --- | --- | --- | --- |
| CC(C)C[C@H](NC(=O)[C@@H](NC(=O)[C@@H](N)CNC(=O)c1cc(O)ccc1O)C(C)C)C(=O)N[C@@H](Cc1ccccc1)[C@@H](O)C(=O)Nc1cccc(-c2nn[nH]n2)c1 | 99 | 93 | 65 |  |
| CC(C)C[C@H](NC(=O)[C@@H](NC(=O)[C@@H](N)CNC(=O)[C@@H]1CC(=O)NC(=O)N1)C(C)C)C(=O)N[C@@H](Cc1ccccc1)[C@@H](O)C(=O)Nc1cccc(C(=O)O)c1 | 40 |  |  |  |
| CC(C)C[C@H](NC(=O)[C@@H](NC(=O)[C@@H](N)CNC(=O)c1nn[nH]n1)C(C)C)C(=O)N[C@@H](Cc1ccccc1)[C@@H](O)C(=O)Nc1cccc(-c2nn[nH]n2)c1 | 100 | 98 | 66 |  |
| CC(C)C[C@H](NC(=O)[C@@H](NC(=O)[C@@H](N)CNC(=O)c1cc(O)ccc1O)C(C)C)C(=O)N[C@@H](Cc1ccccc1)[C@@H](O)C(=O)Nc1cccc(C(=O)O)c1 | 98 | 84 | 58 |  |
| CC(C)C[C@H](NC(=O)[C@@H](NC(=O)[C@@H](N)CNC(=O)c1cc(O)cc(O)c1)C(C)C)C(=O)N[C@@H](Cc1ccccc1)[C@@H](O)C(=O)Nc1cccc(C(=O)O)c1 | 94 | 60 | 69 |  |
| CC(C)C[C@H](NC(=O)[C@@H](NC(=O)[C@@H](N)CNC(=O)c1ccc(O)cc1O)C(C)C)C(=O)N[C@@H](Cc1ccccc1)[C@@H](O)C(=O)Nc1cccc(C(=O)O)c1 | 86 | 59 | 20 |  |
| CC(C)C[C@H](NC(=O)[C@@H](NC(=O)[C@@H](N)CNC(=O)c1cc(O)nc(O)n1)C(C)C)C(=O)N[C@@H](Cc1ccccc1)[C@@H](O)C(=O)Nc1cccc(C(=O)O)c1 | 90 | 54 | 46 |  |
| CC(C)[C@H](NC(=O)[C@@H](N)CNC(=O)c1cc(O)ccc1O)C(=O)N[C@@H](CC1CCCCC1)C(=O)N[C@@H](Cc1ccccc1)[C@@H](O)C(=O)Nc1cccc(-c2nn[nH]n2)c1 | 99 | 92 | 69 |  |
| CC(C)[C@H](NC(=O)[C@@H](N)CNC(=O)c1nnn[nH]1)C(=O)N[C@@H](CC1CCCCC1)C(=O)N[C@@H](Cc1ccccc1)[C@@H](O)C(=O)Nc1cccc(-c2nnn[nH]2)c1 |  |  |  | 3.3 |
| CC(C)C[C@H](NC(=O)[C@@H](NC(=O)[C@@H](N)CNC(=O)c1cc[nH]c1)C(C)C)C(=O)N[C@@H](Cc1ccccc1)[C@@H](O)C(=O)Nc1cccc(C(=O)O)c1 | 69 |  |  |  |
| CC(C)C[C@H](NC(=O)[C@@H](NC(=O)[C@@H](N)CNC(=O)c1nc(O)nc(O)c1F)C(C)C)C(=O)N[C@@H](Cc1ccccc1)[C@@H](O)C(=O)Nc1cccc(C(=O)O)c1 | 99 | 82 | 76 |  |
| CC(C)C[C@H](NC(=O)[C@@H](NC(=O)[C@@H](N)CNC(=O)c1ccoc1)C(C)C)C(=O)N[C@@H](Cc1ccccc1)[C@@H](O)C(=O)Nc1cccc(C(=O)O)c1 | 82 | 38 | 4 |  |
| CC(C)C[C@H](NC(=O)[C@@H](NC(=O)[C@@H](N)CNC(=O)c1cccc(O)c1O)C(C)C)C(=O)N[C@@H](Cc1ccccc1)[C@@H](O)C(=O)Nc1cccc(C(=O)O)c1 | 89 | 75 | 0 |  |
| CC(C)[C@H](NC(=O)[C@@H](N)CNC(=O)c1[nH]c(=O)[nH]c(=O)c1F)C(=O)N[C@@H](CC1CCCCC1)C(=O)N[C@@H](Cc1ccccc1)[C@@H](O)C(=O)Nc1cccc(-c2nnn[nH]2)c1 |  |  |  | 5.6 |
| CC(C)C[C@H](NC(=O)[C@@H](NC(=O)[C@@H](N)CNC(=O)c1cccc(O)c1)C(C)C)C(=O)N[C@@H](Cc1ccccc1)[C@@H](O)C(=O)Nc1cccc(C(=O)O)c1 | 91 | 49 | 57 |  |
| CC(C)C[C@H](NC(=O)[C@@H](NC(=O)[C@@H](N)CNC(=O)c1ccccc1O)C(C)C)C(=O)N[C@@H](Cc1ccccc1)[C@@H](O)C(=O)Nc1cccc(C(=O)O)c1 | 75 |  | 29 |  |
| CC(C)C[C@H](NC(=O)[C@@H](NC(=O)[C@@H](N)CNC(=O)c1nc(O)nc(O)c1I)C(C)C)C(=O)N[C@@H](Cc1ccccc1)[C@@H](O)C(=O)Nc1cccc(C(=O)O)c1 | 99 | 72 | 73 |  |
| CC(C)[C@H](NC(=O)[C@@H](N)CNC(=O)c1[nH]c(=O)[nH]c(=O)c1F)C(=O)N[C@@H](CC1CCCCC1)C(=O)N[C@@H](Cc1ccccc1)[C@@H](O)C(=O)Nc1cccc(-c2nn[nH]n2)c1 | 100 | 97 | 84 |  |
| CC(C)C[C@H](NC(=O)[C@@H](NC(=O)[C@@H](N)CNC(=O)c1[nH]c(=O)[nH]c(=O)c1F)C(C)C)C(=O)N[C@@H](Cc1ccccc1)[C@@H](O)C(=O)Nc1cccc(-c2nnn[nH]2)c1 |  |  |  | 6.5 |
| CC(C)C[C@H](NC(=O)[C@@H](NC(=O)[C@@H](N)CNC(=O)[C@H]1CC(=O)NC(=O)N1)C(C)C)C(=O)N[C@@H](Cc1ccccc1)[C@@H](O)C(=O)Nc1cccc(C(=O)O)c1 | 13 |  |  |  |
| CC(C)C[C@H](NC(=O)[C@@H](NC(=O)[C@@H](N)CNC(=O)c1[nH]c(=O)[nH]c(=O)c1F)C(C)C)C(=O)N[C@@H](Cc1ccccc1)[C@@H](O)C(=O)Nc1cccc(-c2nn[nH]n2)c1 | 100 | 98 | 63 |  |
| CC(C)[C@H](NC(=O)[C@@H](N)CNC(=O)c1nn[nH]n1)C(=O)N[C@@H](CC1CCCCC1)C(=O)N[C@@H](Cc1ccccc1)[C@@H](O)C(=O)Nc1cccc(-c2nn[nH]n2)c1 | 100 | 98 | 59 |  |
